The values that follow come from PMC7069976, “Improved secretion of glycoproteins using an N-glycan-restricted passport sequence tag recognized by cargo receptor” (Nature Communications, 2020).

Test [1] deals with T1, MCFD2 (Homo sapiens, UniProt Q8NI22).
T1 construct: made in house
T1 sequence (Q8NI22 27-146): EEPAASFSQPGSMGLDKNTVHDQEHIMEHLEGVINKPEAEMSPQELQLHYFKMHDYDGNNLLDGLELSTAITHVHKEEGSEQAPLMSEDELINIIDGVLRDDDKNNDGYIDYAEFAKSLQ
Nature of the test: NMR titration (peak attenuation) of [15N]FVIII-derived peptide with MCFD2 only. The test is classed as binding. The note with it: absence of ERGIC-53CRD, 0.1 mM [15N]FVIII fragment, 0.02–0.3 mM MCFD2, 20 mM MES pH 6.0, 10 mM CaCl2, 150 mM NaCl, 10% D2O, read-out: dissociation constant. How it is done: (§1) The preparation of ERGIC-53^CRD, MCFD2, and their complexes was performed as previously described[16],[18]. FVIII fragment (Asn776–Asp838) was prepared using the protocol described previously. The DNA fragment encoding residues Asn776–Asp838 of FVIII was cloned into the ubiquitin (Ub)-fused pET28a plasmid. The peptide fragment was expressed as a Ub-fused protein in Luria–Bertani broth or M9 minimal medium supplemented with [^15N]NH4Cl and/or [^13C]glucose for NMR experiments. The Ub-fused FVIII peptide was purified with immobilized Ni^2+-affinity chromatography and then digested with Ub carboxyl-terminal hydrolase (YUH1). The resultant peptide was purified by reversed-phase chromatography.
(§2) NMR measurements were performed using AVANCE 800 and AVANCE 500 spectrometers each equipped with a 5-mm triple-resonance cryogenic probe (Bruker BioSpin, Fallanden, Switzerland). The NMR data were processed and analyzed using TopSpin (Bruker BioSpin) and SPARKY software.
(§3) The chemical shifts of the FVIII fragment (Asn776–Asp838) were assigned by a standard protocol[18],[25]. To obtain the dissociation constant based on NMR peak attenuation, 0.1 mM [^15N]FVIII fragment was titrated with 0.02–0.3 mM of MCFD2/ERGIC-53^CRD or MCFD2 only in 20 mM 2-(N-morpholino) ethanesulfonic acid (MES; pH 6.0) containing 10 mM CaCl2, 150 mM NaCl, and 10% (v/v) D2O. […]

The target of test [2] is T1, MCFD2. As to the kind of experiment: NMR chemical shift perturbation of [15N]MCFD2 upon peptide addition. The test is classed as binding.
Test [3] deals with T2, MCFD2/ERGIC-53^CRD complex (Homo sapiens, UniProt P49257+Q8NI22).
T2 construct: made in house
T2 sequence (Q8NI22 27-146): T1 sequence (Q8NI22 27-146)
T2 sequence (P49257 44-267 partner limits assumed): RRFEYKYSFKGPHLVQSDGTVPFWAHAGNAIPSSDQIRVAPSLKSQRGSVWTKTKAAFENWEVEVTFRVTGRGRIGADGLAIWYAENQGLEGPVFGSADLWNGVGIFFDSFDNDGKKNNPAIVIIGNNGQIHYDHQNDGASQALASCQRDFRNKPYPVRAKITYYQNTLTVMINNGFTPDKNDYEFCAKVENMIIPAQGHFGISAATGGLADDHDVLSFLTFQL
As to the kind of experiment: NMR titration (peak attenuation) of [15N]FVIII-derived peptide with MCFD2/ERGIC-53CRD. The test is classed as binding. The method, then:
as §1, §2, §3

The next test concerns HCT116 cells. As to the kind of experiment: α1-antitrypsin (AAT) secretion level (ELISA) from HCT116 cells. The test is classed as cell-based. From the text: (§4) For expression of the FVIII and FV full-length and deletion mutant proteins in mammalian cells, the codon-optimized FVIII and FV genes were inserted into the p3XFLAG-CMV-14 Expression Vector and p3XFLAG-CMV-9 Expression Vector, respectively (Sigma-Aldrich, St. Louis, MO). For the expression of the wild-type and mutated AAT, EPO, and sFγRIIIa in mammalian cells, the corresponding genes (purchased from FASMAC Co., Ltd., Atsuki, Japan) were inserted into the p3XFLAG-CMV-9 Expression Vector (Sigma-Aldrich).
HCT116 and its mutated cells as well as HEK293T were maintained in Dulbecco’s modified Eagle’s medium (DMEM) supplemented with 10% fetal bovine serum in 5% CO2 at 37 °C. For complementary DNA (cDNA) transfection, cells were grown overnight and transfected using Polyethylenimine “Max” (Polysciences Inc.) as described previously. Expi293F cells (Thermo Fisher Scientific, Waltham, MA) were maintained in Expi293 Expression Medium (Thermo Fisher Scientific) in 5% CO2 at 37 °C on an orbital shaker platform rotating at 125 r.p.m. For cDNA transfection, cells were transfected with the ExpiFectamine 293 Transfection Kit (Thermo Fisher Scientific Inc.). Protein expression was performed in serum-free medium.
(§5) The secreted levels of FVIII and FV antigens in the culture medium were determined with an sandwich enzyme-linked immunosorbent assay (ELISA) method using the VisuLize FVIII Antigen Kit (Affinity Biologicals Inc., Ancaster, ON) and the Asssay Max™ Human Factor V ELISA Kit (ASSAYPRO, MO), respectively. The secreted levels of AAT and EPO antigens in the culture medium were determined with an ELASA method using the anti-AAT antibody (Agilent, Santa Clara, CA) and anti-Flag M2 antibody (Sigma-Aldrich), respectively.
A general note: ELISA stands for enzyme-linked immunosorbent assay.

The next test relates to COS-7 cells. Nature of the test: FV secretion level (ELISA) from COS-7 cells. It is filed as cell-based.
Description: as §4, §5

The target in test [4] is T1, MCFD2. Conditions: Arg44–His56; cited from earlier work.

Take “DPPSDLLLLKQSNSSKILVGRWHLASEK [FVIII-derived peptide, FVIII fragment residues Asn776–Asp838, expressed as Ub-fused protein and cleaved with YUH1]”: the Kd in the test with MCFD2 [1] amounted to 120 µM; in test [3] (NMR peak attenuation, 0.1 mM [15N]FVIII fragment titrated with 0.02–0.3 mM MCFD2/ERGIC-53CRD, 20 mM MES pH 6.0, 10 mM CaCl2, 150 mM NaCl, 10% D2O, read-out: dissociation constant) it was 11 µM. Also, the “chemical shift changes of MCFD2 induced by FVIII-derived peptide” value at MCFD2 [2] (two molar equivalents of peptide, with vs without five equivalents ERGIC-53CRD-derived tridecapeptide, pH 6.0, 303 K) is given as “markedly enhanced spectral changes in the presence of the ERGIC-53-derived tridecapeptide”. Besides, in test [3] (15N-labeled peptide 0.1 mM, one molar equivalent, pH 6.0, 283 K), the “attenuation of NMR peak intensities upon addition of MCFD2/ERGIC-53CRD” value is listed as “significant attenuation in peak intensities for the region spanning residues 806–819”.

Consider “AAT: human α1-antitrypsin, three N-glycosylation sites”, for which, in the test on HCT116 cells (HCT116, Average, n = 3 independent transfections, AAT = 1), the “AAT secretion level, average” value is 1. In addition, the AAT secretion level with HCT116 cells (HCT116, replicate 1) was found to be 1.145; with HCT116 cells (HCT116, replicate 2), 1.033; with HCT116 cells (HCT116, replicate 3), 0.8224.

Turning to DPPSDLLLLKQSNSSKILVGRWHLASEK, the “interaction of FV-derived peptide with MCFD2” value at MCFD2 [2] (two molar equivalents, with vs without ERGIC-53CRD-derived peptide, pH 6.0, 2% DMSO-d6, 303 K) is “interacts with the EF-hand helices of MCFD2 in an ERGIC-53^CRD-dependent manner”.

As for FV: recombinant wild-type factor V, the “FV secretion level (Supplementary Fig. 7B), average” value with COS-7 cells (Average, n = 3, FV = 1) came to 1. Besides, the “FV secretion level (Supplementary Fig. 7B)” value with COS-7 cells (replicate 1) was found to be 1.05; in the test with COS-7 cells (replicate 2), 0.9799; in the test with COS-7 cells (replicate 3) it was 0.9702.

As for “ATZ-mutant: ATZ-mutant of alpha 1-antitrypsin, with or without C-terminal SDLLMLLRQS motif”, the “ATZ-mutant secretion with vs without C-terminal motif” value with HCT116 cells (ATZ-mutant of alpha1-antitrypsin, HCT116, ELISA, n = 3) was “did not observe significant difference”.

As to RRFEYKYSFKGPH, at MCFD2 [4], the “chemical shift changes of MCFD2 induced by ERGIC-53CRD-derived tridecapeptide” value was “induces widespread chemical shift changes of MCFD2”.
